The target in series [1] is T1, Peroxisome proliferator-activated receptor gamma/Nuclear receptor coactivator 2 (Homo sapiens, UniProt P37231). Format: functional.
In series [2] the target is T2, Peroxisome proliferator-activated receptor gamma/Nuclear receptor coactivator 1 (Homo sapiens, UniProt P37231). Type of series: functional.
Series [3] addresses T3, Peroxisome proliferator-activated receptor gamma/Nuclear receptor coactivator 3 (Homo sapiens, UniProt P37231). Type of series: functional.
In the next series the target is T4, Estrogen receptor (Homo sapiens, UniProt P03372).
T4 sequence (P03372 whole entry): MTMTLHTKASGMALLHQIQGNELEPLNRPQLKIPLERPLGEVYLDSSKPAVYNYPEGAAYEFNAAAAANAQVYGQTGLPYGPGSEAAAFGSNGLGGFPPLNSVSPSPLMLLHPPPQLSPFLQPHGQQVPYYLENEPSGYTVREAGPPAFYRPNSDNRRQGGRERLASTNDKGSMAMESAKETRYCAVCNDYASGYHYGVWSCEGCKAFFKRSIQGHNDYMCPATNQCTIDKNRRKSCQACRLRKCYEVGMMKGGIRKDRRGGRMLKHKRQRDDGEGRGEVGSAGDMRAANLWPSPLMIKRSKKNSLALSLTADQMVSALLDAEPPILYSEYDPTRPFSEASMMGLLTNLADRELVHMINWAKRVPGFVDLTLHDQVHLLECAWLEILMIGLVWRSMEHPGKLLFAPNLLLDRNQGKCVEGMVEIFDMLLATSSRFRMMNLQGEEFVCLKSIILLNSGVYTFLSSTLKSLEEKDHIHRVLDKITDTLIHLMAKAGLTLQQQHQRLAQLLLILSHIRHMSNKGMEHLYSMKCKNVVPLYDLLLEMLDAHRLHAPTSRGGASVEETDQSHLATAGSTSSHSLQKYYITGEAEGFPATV

The target in the next series is T5, CAAX prenyl protease 2 (Saccharomyces cerevisiae S288c, UniProt Q03530).
T5 sequence (Q03530 whole entry): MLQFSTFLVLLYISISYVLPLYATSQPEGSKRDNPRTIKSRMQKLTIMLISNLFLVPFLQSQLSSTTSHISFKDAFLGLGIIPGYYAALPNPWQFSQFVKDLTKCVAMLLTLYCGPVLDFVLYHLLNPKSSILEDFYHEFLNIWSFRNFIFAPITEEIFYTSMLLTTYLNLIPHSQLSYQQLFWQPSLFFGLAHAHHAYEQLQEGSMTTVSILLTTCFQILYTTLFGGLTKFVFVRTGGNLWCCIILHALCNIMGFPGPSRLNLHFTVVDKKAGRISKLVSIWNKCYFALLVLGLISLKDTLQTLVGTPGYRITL
Format: biochemical.

A further series deals with Prothrombin (Homo sapiens, UniProt P00734). The series can be described thus: Thrombin 1536 HTS Dose Response Confirmation. [Related pubchem assays: 1046 (Thrombin 1536 HTS; hits were confirmed in this assay)]. Format: functional.
Another series has as its target Cytochrome P450 2C19 (Homo sapiens, UniProt P33261). The series can be described thus: Cytochrome panel assay with activity outcomes. Panel member name: p450-cyp2c19 Compounds with AC50 equal or less than 10 uM are considered active. Type of series: functional. As to conditions: read-out: AC50.
The next series concerns the target Large T antigen (Simian virus 40, UniProt P03070). Type of series: functional, Betapolyomavirus macacae.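 Note: Confirmatory-stage PubChem screen for compounds that inhibit SV40 T antigen.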
Series [4] has as its target Induced myeloid leukemia cell differentiation protein Mcl-1 (Homo sapiens, UniProt Q07820). Type of series: functional.
Series [5] has as its target T6, Mannose-6-phosphate isomerase (Homo sapiens, UniProt P34949).
T6 sequence (P34949 whole entry): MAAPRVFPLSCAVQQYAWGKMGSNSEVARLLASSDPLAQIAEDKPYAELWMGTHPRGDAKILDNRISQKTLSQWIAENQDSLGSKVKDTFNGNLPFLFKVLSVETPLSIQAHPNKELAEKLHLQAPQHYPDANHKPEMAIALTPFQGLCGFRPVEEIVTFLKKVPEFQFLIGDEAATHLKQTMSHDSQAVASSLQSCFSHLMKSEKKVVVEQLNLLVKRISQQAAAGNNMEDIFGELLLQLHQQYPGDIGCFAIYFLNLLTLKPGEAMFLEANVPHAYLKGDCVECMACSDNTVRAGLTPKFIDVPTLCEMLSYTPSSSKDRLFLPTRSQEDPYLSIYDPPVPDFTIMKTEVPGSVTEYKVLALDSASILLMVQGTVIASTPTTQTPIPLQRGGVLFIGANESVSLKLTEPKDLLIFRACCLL
The series can be described thus: human PMI inhibitors, high substrate, primary screen, biochemical, fluorescence intensity, high mannose 6-phosphate (AID 1220).

The target of series [6] is Voltage-dependent T-type calcium channel subunit alpha-1H (Homo sapiens, UniProt O95180). Format: functional.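 Note: channel activity triggered by adding a high calcium stimulation buffer.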
The target of the next series is Cytochrome P450 2C9 (Homo sapiens, UniProt P11712).
For another series, the target named is Estrogen receptor beta (Homo sapiens, UniProt Q92731).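 Note: recombinant ER-beta bound to coactivator SRC1 peptide in presence of estradiol agonist; inhibitors block coactivator peptide binding and lower the FRET signal.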
Estrogen receptor beta, sequence (Q92731 whole entry, the tested form may be a part): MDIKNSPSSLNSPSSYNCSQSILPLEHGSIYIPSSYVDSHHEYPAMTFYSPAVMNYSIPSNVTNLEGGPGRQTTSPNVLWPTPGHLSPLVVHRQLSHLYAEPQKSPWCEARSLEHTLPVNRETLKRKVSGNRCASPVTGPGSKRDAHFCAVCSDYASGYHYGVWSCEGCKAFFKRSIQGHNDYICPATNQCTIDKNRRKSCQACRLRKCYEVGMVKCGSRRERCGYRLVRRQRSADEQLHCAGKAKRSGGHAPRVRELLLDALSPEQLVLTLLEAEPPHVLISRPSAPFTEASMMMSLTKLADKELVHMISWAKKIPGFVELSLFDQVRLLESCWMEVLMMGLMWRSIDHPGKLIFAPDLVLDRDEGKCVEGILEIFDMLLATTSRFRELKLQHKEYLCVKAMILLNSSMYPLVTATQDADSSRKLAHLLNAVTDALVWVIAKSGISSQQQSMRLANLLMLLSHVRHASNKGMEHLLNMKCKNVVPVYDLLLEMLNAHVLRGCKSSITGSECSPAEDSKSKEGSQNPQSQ
In series [7] the target is T7, Oxysterols receptor LXR-beta (Homo sapiens, UniProt P55055).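 Note: agonist activity at LXR measured by a cell-based luminescence readout across a dose range, run as a counterscreen for daf-12 agonists; HEK293 cells with Gal4-LXR fusion and GAL4-driven luciferase reporter; potency for activation of Gal4-LXR reporter so compounds are agonists.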
T7 sequence (P55055 whole entry): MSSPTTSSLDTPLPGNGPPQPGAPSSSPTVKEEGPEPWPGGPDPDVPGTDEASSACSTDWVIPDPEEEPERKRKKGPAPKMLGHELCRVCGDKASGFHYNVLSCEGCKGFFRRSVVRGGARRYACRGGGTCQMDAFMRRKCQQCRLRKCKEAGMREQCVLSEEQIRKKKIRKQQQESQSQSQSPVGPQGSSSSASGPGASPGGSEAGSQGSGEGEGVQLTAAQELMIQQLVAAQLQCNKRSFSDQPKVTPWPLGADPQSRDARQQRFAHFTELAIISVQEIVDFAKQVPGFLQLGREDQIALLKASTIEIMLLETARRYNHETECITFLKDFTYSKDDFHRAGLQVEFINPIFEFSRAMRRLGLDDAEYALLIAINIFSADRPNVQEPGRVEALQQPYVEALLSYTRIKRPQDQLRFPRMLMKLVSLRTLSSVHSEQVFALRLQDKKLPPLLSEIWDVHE
Format: functional, cell-based.

Series [8] has as its target T2, Peroxisome proliferator-activated receptor gamma/Nuclear receptor coactivator 1. The series can be described thus: TR-FRET dose response biochemical High Throughput Screening assay for agonists of the steroid receptor coactivator 1 (SRC-1) recruitment by the peroxisome proliferator-activated receptor gamma (PPAR gamma): non-selective agonists. [Related pubchem assays (depositor defined):AID1300, AID1808, AID504735, AID631]. Format: protein assay.

Series [9] deals with T3, Peroxisome proliferator-activated receptor gamma/Nuclear receptor coactivator 3. The series can be described thus: TR-FRET dose response biochemical High Throughput Screening assay for agonists of the steroid receptor coactivator 3 (SRC-3) recruitment by the peroxisome proliferator-activated receptor gamma (PPAR gamma): non-selective agonists. [Related pubchem assays: 1301 (Confirmation screen.), 1048 (Primary screen.)]. Format: functional.

The target in series [10] is T1, Peroxisome proliferator-activated receptor gamma/Nuclear receptor coactivator 2. The series can be described thus: TR-FRET dose response biochemical High Throughput Screening assay for agonists of the steroid receptor coactivator 2 (SRC-2) recruitment by the peroxisome proliferator-activated receptor gamma (PPAR gamma): non-selective agonists. [Related pubchem assays: 1297, 1032 ]. Type of series: functional. (In general: TR-FRET usually uses a lanthanide donor and a delayed reading to cut background.)

For series [11], the target named is Eukaryotic translation initiation factor 4E (Mus musculus, UniProt P63073). The series can be described thus: eIF4E–eIF4G protein interaction inhibitors, dose response, biochemical, TR-FRET (AID 855).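 Note: potency for disrupting eIF4E binding to eIF4GI seen as loss of FRET.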 Format: functional.
Eukaryotic translation initiation factor 4E, sequence (P63073 whole entry): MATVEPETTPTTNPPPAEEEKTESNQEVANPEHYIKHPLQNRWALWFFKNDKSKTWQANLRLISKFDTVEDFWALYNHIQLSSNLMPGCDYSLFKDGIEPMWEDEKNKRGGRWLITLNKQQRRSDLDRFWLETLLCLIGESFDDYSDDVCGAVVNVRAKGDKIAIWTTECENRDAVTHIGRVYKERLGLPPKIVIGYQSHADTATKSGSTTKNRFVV
The target in series [12] is DNA dC->dU-editing enzyme APOBEC-3G (Homo sapiens, UniProt Q9HC16). The series can be described thus: Dose Response confirmation of small molecule APOBEC3G DNA Deaminase Inhibitors via a fluorescence-based single-stranded DNA deaminase assay. [Related pubchem assays (depositor defined):AID493012, AID493028]. Type of series: functional.
For series [13], the target named is Glyceraldehyde-3-phosphate dehydrogenase (Homo sapiens, UniProt P04406).
Glyceraldehyde-3-phosphate dehydrogenase, sequence (P04406 whole entry): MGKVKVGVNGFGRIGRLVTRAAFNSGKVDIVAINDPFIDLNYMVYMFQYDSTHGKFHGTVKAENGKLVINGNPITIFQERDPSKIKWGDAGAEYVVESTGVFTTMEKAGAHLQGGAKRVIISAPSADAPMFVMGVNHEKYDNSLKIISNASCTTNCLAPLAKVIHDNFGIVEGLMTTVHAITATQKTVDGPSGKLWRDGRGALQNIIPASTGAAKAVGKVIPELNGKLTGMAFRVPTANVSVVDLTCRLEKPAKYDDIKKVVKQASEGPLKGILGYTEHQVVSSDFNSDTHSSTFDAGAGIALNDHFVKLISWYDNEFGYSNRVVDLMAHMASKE
The target in series [14] is T8, Alkaline phosphatase, tissue-nonspecific isozyme (Homo sapiens, UniProt P05186).
T8 sequence (P05186 whole entry): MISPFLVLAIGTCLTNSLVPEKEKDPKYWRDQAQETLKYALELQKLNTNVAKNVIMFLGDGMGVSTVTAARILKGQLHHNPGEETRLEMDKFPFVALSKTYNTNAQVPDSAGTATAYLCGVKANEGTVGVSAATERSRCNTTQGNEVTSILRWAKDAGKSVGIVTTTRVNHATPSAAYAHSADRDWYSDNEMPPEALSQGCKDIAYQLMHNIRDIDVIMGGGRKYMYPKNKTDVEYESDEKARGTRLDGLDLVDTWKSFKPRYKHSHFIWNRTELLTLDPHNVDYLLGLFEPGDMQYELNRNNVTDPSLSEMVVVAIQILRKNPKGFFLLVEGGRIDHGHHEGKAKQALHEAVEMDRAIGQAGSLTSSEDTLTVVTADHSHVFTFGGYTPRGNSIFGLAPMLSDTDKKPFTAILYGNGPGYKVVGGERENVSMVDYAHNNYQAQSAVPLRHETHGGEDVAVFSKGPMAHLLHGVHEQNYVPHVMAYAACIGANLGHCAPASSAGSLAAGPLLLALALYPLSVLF
The series can be described thus: human TNAP enzyme inhibitors, SAR follow-up, biochemical, luminescent, dose response (AID 1056).

Active and inactive are the calls of the source.

T2 sequence (P37231 whole entry): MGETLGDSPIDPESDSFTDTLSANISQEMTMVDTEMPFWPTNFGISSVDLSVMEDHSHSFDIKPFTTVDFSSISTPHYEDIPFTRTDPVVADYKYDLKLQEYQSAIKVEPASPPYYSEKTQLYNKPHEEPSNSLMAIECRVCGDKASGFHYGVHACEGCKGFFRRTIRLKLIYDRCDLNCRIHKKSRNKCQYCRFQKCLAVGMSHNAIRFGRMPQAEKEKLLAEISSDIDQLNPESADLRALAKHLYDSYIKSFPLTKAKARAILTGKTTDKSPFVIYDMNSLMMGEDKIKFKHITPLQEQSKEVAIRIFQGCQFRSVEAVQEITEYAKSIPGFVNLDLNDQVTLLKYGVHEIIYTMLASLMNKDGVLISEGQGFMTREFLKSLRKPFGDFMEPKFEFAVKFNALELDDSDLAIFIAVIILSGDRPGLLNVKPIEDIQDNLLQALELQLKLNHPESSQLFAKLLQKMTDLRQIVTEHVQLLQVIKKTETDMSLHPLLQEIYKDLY
T2 sequence (Q15788 whole entry, further chain): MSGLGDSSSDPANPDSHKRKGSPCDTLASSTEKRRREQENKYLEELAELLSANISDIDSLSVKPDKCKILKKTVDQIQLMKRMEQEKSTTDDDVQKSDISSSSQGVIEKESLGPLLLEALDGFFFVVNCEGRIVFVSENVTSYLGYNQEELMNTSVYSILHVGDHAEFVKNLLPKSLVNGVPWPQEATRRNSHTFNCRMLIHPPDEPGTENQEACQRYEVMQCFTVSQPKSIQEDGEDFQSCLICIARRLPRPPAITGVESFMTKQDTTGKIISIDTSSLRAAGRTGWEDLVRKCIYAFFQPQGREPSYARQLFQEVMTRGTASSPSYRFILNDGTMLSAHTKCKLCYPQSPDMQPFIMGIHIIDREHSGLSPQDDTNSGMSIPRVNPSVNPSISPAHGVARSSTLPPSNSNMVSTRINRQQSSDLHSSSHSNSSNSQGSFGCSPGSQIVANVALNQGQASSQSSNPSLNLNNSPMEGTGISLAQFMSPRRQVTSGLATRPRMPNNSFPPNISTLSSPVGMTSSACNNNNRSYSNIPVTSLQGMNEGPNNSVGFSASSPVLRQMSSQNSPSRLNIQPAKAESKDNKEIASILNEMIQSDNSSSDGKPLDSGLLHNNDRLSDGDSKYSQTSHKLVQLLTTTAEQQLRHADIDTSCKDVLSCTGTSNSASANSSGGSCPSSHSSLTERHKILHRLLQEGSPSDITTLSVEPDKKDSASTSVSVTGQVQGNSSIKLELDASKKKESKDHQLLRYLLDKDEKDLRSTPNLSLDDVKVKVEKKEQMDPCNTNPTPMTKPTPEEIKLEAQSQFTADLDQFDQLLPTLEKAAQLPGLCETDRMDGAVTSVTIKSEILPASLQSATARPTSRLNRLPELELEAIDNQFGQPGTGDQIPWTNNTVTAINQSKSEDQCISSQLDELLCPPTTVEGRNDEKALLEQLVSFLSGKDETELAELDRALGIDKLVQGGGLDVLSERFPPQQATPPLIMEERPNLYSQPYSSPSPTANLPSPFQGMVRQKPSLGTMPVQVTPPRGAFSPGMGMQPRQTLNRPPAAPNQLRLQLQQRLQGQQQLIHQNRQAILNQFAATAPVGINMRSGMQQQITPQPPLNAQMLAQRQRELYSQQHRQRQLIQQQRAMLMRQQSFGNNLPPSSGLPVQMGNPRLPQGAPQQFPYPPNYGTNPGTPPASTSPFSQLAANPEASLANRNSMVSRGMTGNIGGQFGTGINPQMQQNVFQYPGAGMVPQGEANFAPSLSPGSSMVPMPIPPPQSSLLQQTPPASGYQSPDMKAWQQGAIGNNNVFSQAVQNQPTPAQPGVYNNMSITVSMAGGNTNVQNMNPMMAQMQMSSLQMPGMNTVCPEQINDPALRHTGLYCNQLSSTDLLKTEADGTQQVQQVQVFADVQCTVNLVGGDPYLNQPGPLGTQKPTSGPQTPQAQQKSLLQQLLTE
T3 sequence (P37231 whole entry): as the sequence (P37231 whole entry) above
T3 sequence (Q9Y6Q9 whole entry, further chain): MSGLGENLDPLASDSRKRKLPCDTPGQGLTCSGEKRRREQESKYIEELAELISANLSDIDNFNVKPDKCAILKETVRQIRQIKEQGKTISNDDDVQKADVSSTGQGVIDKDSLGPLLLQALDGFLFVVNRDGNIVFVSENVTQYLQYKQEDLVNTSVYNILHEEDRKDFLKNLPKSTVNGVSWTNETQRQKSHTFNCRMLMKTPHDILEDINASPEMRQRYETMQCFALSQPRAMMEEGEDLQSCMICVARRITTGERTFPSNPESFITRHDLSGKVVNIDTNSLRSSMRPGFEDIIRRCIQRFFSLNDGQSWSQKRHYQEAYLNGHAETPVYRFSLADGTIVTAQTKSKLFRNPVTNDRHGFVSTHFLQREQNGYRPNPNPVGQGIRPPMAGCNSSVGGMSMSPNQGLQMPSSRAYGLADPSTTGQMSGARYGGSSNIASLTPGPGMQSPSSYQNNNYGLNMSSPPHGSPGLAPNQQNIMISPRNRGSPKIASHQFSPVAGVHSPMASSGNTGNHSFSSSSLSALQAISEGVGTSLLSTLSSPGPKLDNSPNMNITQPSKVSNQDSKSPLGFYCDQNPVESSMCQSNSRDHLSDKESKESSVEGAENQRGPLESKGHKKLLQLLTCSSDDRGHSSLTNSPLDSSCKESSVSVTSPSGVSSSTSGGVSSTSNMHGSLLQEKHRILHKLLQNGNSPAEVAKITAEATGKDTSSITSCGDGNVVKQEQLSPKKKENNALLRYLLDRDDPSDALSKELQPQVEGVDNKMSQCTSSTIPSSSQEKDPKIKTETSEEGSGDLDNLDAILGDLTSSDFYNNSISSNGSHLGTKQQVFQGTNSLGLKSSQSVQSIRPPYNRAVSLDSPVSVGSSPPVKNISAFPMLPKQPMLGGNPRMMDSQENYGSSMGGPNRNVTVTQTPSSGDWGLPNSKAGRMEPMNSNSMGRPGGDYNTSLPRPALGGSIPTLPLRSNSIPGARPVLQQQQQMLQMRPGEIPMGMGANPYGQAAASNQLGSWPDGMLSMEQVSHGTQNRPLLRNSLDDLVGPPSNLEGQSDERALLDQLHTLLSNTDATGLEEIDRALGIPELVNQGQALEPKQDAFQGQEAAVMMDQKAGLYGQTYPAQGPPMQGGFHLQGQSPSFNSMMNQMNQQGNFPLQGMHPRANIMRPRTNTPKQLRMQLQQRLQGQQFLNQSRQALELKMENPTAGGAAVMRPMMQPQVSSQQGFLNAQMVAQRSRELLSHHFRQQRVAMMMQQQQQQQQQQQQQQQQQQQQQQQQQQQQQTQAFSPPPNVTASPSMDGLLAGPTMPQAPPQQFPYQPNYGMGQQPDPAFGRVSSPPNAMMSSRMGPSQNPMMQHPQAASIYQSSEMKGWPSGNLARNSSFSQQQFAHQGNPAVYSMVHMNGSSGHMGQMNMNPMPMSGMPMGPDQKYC

With `CCOC(=O)c1c(NC(=O)CSc2nnc(CNc3ccc(F)cc3)o2)sc(C(C)=O)c1C`, the 50% effective concentration (EC50) in [1] is 42.5 µM (not active); in [2] it was 54.3 µM (not active); in series [3] it was > 79.4 µM (not active).
Turning to `COc1ccc(-c2cc(-c3cccs3)c(C#N)c(SCC(=O)NCc3ccco3)n2)cc1`, the half-inhibitory concentration (IC50) against Estrogen receptor was > 50 µM (not active).
For `COc1cccc(/C=c2/s/c(=C(\C#N)C(=O)N3CCOCC3)n(-c3ccccc3)c2=O)c1`, the EC50 in [1], in [2] and in [3] was > 79.4 µM (not active) in each case.
Consider `CN(C)CCN(C(=O)c1ccc2ccccc2c1)c1nc2ccc(F)cc2s1`, for which, at CAAX prenyl protease 2, the AC50 is 6.44 µM (active).
`COc1cccc(C(=O)n2c(SC)nc3cc4c(cc32)OCCO4)c1`: the IC50 at Prothrombin is 0.0235 µM (active). Moreover, the AC50 at Cytochrome P450 2C19 is 35.5 µM (inconclusive).
As for `O=C(NCc1ccco1)c1cnc2ccc(S(=O)(=O)N3CCOCC3)cc2c1O`, the IC50 at Prothrombin was 0.943 µM (active).
As to `COc1ccc(N2CCC(CNC(=O)Nc3cccc(OC)c3)C2)cc1` (stereo not given), the IC50 on Large T antigen is 43.3 µM (active); in series [4], 3.18 µM (not active); in [5], > 50 µM (not active).
Turning to `CC(C(=O)NCc1ccc2c(c1)OCO2)N1c2cccc3cccc(c23)S1(=O)=O` (stereo not given), the EC50 in [6] is 9.35 µM (active). Further, the half-maximal activity concentration (AC50) result at Cytochrome P450 2C9 was “inconclusive”.
For `CCOc1ccc(C(=O)CCN2CCCCC2)cc1`, on Estrogen receptor beta, the IC50 is listed as > 50 µM (not active).
Take `CC(CO)(CO)NCc1ccc(-c2ccccc2)cc1`: the IC50 against Prothrombin is > 50 µM (not active).
On to `Cc1ccc(-c2onc3ccc(C(=O)O)cc23)cc1`, for which the EC50 in series [7] was > 67.6 µM (inactive).
`Cn1c(=O)cc(SCC(=O)NCCCN2CCN(c3ccccc3F)CC2)c2ccccc21`: the EC50 in series [8] was > 79.4 µM (inactive); in [9] it was > 79.4 µM (not active); in series [10] it was > 79.4 µM (not active).
For the compound `CCCn1cc(SCC(=O)Nc2ccc3c(c2)OCO3)c2ccccc21`, in series [6], the EC50 is 5.11 µM (active).
Turning to `Cc1cc(C(=O)CSc2ncccn2)c(C)n1Cc1ccco1`, in series [7], the EC50 is > 67.5 µM (inactive).
As for `C(=N\c1cccc2c(/N=C/c3ccco3)cccc12)/c1ccco1`, in [5], the IC50 is > 50 µM (not active).
Regarding `Clc1ccc(Cl)c(-c2nn3c(COc4ccccc4)nnc3s2)c1`, the IC50 is > 64 µM (inactive) in series [11] and 37 µM (active) in series [12].
Regarding `Cc1cc2cc(CCNC(=O)c3c(-c4ccccc4Cl)noc3C)c(=O)[nH]c2cc1C`, the EC50 in series [6] was 4.77 µM (active).
In the case of `CCCSc1nsc(NC(=O)CC)n1`, the EC50 in series [7] is > 67.5 µM (inactive).
As for `COc1ccc(-c2cc(C(=O)O)n[nH]2)cc1`, the IC50 in series [13] was > 100 µM (not active); in [14], 6.72 µM (active).
For `COc1ccc(C(=O)C(C)(C)NO)cc1`, the EC50 in series [1], in series [2] and in series [3] was > 79.4 µM (not active) throughout.
On to `COc1cccc(Cc2nnc(N3C(=O)[C@H]4CC=CC[C@H]4C3=O)[nH]2)c1`, for which the IC50 in series [13] is > 100 µM (not active); in series [14], 2.48 µM (active).
Regarding `COc1cc(OC)c(C2CC(=O)N3CN(C)CSC3=C2C#N)cc1OC` (stereo not given), the IC50 is 61.1 µM (active) at Large T antigen and 23.1 µM (active) in [5].
`O=C(NCc1ccccn1)c1cn(-c2ccccc2)nc1-c1ccc(Cl)cc1`: on Prothrombin, the IC50 is > 50 µM (not active).
In the case of `O=C(CSc1cccc(C(F)(F)F)c1)NC(=O)NCc1ccco1`, the half-maximal inhibitory concentration (IC50) on Estrogen receptor is reported as > 50 µM (not active). The EC50 in series [6] is 1.67 µM (active).
For `O=C(Nc1ccccc1Cl)C1CCN(Cc2cnn(-c3ccccc3)c2-n2cccc2)CC1`, in series [6], the EC50 was 2.74 µM (active).
As to `O=C(Oc1ccc2c(c1)OCC2=O)c1ccccc1`, the IC50 against Estrogen receptor beta is on record as > 50 µM (not active).
Take `O=C(O)c1cc(-c2ccc(O)cc2)n[nH]1`: the figures for the IC50 in [13] and in series [14] were > 100 µM (not active) and 14 µM (active), respectively.

In general, EC50 refers to the midpoint of the concentration-response curve. The IC50 is the concentration needed to halve the response being measured. As usually defined, the AC50 is the concentration at which the activity in the assay is half-maximal.

The values above are taken from ChEMBL document CHEMBL1201862, “PubChem BioAssay data set” (2004).
